The record followed here is patent US20250169498A1, “SYNERGISTIC FUNGICIDAL INTERACTIONS OF A PICOLINAMIDE FUNGICIDE WITH OTHER FUNGICIDES AGAINST ASIAN SOYBEAN RUST” (CORTEVA AGRISCIENCE LLC, priority 2020, published 2025).

Assay [1] concerns Phakopsora pachyrhizi, PHAKPA. The assay is described as follows: 1-day protectant (1 DP) PHAKPA test on soybean seedlings. The class given is in vivo. The note with it: alone; for pest or weed control at 0.006 ppm: rate 0.006 ppm; for pest or weed control at 0.024 ppm: rate 0.024 ppm; for pest or weed control at 0.0015 ppm: rate 0.0015 ppm; for pest or weed control at 0.049 ppm: rate 0.049 ppm; for pest or weed control at 12.5 ppm: rate 12.5 ppm. The protocol: (§1) Fungicides were evaluated vs. PHAKPA either alone or in binary or ternary mixtures by combining each fungicide with Compound I. Technical grades of materials were dissolved in 1.5 ml of acetone, which were then mixed with 13.5 ml of water containing 0.011% Tween 20. The fungicide solutions were applied onto soybean seedlings using an automated booth sprayer to run-off. All sprayed plants were allowed to air dry prior to further handling. Soybean plants (variety Williams 82) were grown in soil-less Metro mix, with one plant per pot. Two weeks old seedlings were used for testing. Plants were inoculated either 3 days prior to or 1 day after fungicide treatments. Plants were incubated for 24 h in a dark dew room at 22° C. and 100% RH then transferred to a growth room at 23° C. for disease to develop. Once disease fully expressed on untreated plants, disease severity was assessed on the sprayed monofoliate leaves.
(§2) Synergy factors were calculated using Colby's method. The expected disease control (% DC exp) of a mixture consisting of two or three components can be predicted by the following formula: […]
(§3) where A, B, C are the percent disease control given by the individual fungicide component at the defined rate in the mixture. If the ratio (synergy factor) between the observed disease control of the mixture (% DCobs) and the expected disease control of the mixture (% DCexp) is greater than 1, synergistic interaction is present.
(§4) When disease fully developed on the control plants, infection levels were assessed on treated plants visually and scored on a scale of 0 to 100 percent. Percentage of disease control was then calculated using the ratio of disease on treated plants relative to control plants. […]

Assay [2] concerns Phakopsora pachyrhizi, PHAKPA. The assay is described as follows: 3-day curative (3 DC) PHAKPA test on soybean seedlings. Format: in vivo. The note with it: alone; for pest or weed control at 0.024 ppm: rate 0.024 ppm; for pest or weed control at 0.195 ppm: rate 0.195 ppm; for pest or weed control at 0.049 ppm: rate 0.049 ppm. As for the experimental part: as §1, §2, §3, §4
The mark [3] stands for this setting: Phakopsora pachyrhizi, read-out: % DC obs.
The mark [4] stands for this setting: Phakopsora pachyrhizi, rate 0.39 ppm, read-out: % DC obs.
[5] abbreviates: Phakopsora pachyrhizi, rate 0.195 ppm, read-out: % DC obs.
The mark [6] stands for this setting: Phakopsora pachyrhizi, rate 0.78 ppm, read-out: % DC obs.
[7] abbreviates: Phakopsora pachyrhizi, rate 3.125 ppm, read-out: % DC obs.
Where [8] appears, read: Phakopsora pachyrhizi, rate 37.5 ppm, read-out: % DC obs.
Setting [9] is: Phakopsora pachyrhizi, rate 75 ppm, read-out: % DC obs.
[10] abbreviates: Phakopsora pachyrhizi, rate 0.19 ppm, read-out: % DC obs.
[11] abbreviates: Phakopsora pachyrhizi, rate 200 ppm, read-out: % DC obs.
Where [12] appears, read: Phakopsora pachyrhizi, rate 0.012 ppm, read-out: % DC obs.

On to `Fc1ccc([C@]2(Cn3cncn3)O[C@H]2c2ccccc2Cl)cc1` (racemic) [Epoxiconazole, rel-1-[[(2R,3S)-3-(2-chlorophenyl)-2-(4-fluorophenyl)oxiranyl]methyl]-1H-1,2,4-triazole], for which, in assay [1] (setting [3]), the pest or weed control at 0.006 ppm is 3.7% and the pest or weed control at 0.024 ppm came out at 48.1%. The pest or weed control at 0.024 ppm in assay [2] (setting [3]) was 0%.

As for `CO/C=C(/C(=O)OC)c1ccccc1Oc1cc(Oc2ccccc2C#N)ncn1` [Azoxystrobin, methyl (αE)-2-[[6-(2-cyanophenoxy)-4-pyrimidinyl]oxy]-α-(methoxymethylene)benzeneacetate], the pest or weed control at 0.024 ppm in assay [1] (setting [3]) was found to be 22.2%. Besides, the pest or weed control at 0.098 ppm in assay [1] (Phakopsora pachyrhizi, rate 0.098 ppm, read-out: % DC obs) came out at 50.4%. In addition, in assay [2] (setting [4]), the pest or weed control at 0.39 ppm is 31.7%.

`Cn1cc(C(=O)Nc2cccc3c2C2CCC3C2=C(Cl)Cl)c(C(F)F)n1` (stereo not shown) [Benzovindiflupyr, N-[11-(dichloromethylidene)-3-tricyclo[6.2.1.0]undeca-2(7),3,5-trienyl]-3-(difluoromethyl)-1-methylpyrazole-4-carboxamide]: the “% DC obs” value in assay [1] (rate 0.195 ppm) is 3.7%; in assay [1] (rate 0.78 ppm), 11.1%; in assay [1] (rate 3.125 ppm), 80.0%; in assay [2] (rate 0.78 ppm) it was 11.7%.

`Cn1cc(C(=O)Nc2ccc(F)cc2-c2ccc(Cl)c(Cl)c2)c(C(F)F)n1` [Bixafen, N-(3′,4′-dichloro-5-fluoro[1,1′-biphenyl]-2-yl)-3-(difluoromethyl)-1-methyl-1H-pyrazole-4-carboxamide]: in assay [1] (setting [5]), the pest or weed control at 0.195 ppm was 0%. Moreover, in assay [2] (setting [6]), the pest or weed control at 0.78 ppm is 0%. Also, the pest or weed control at 3.125 ppm in assay [2] (setting [7]) is 0%.

Take `N#Cc1c(Cl)c(Cl)c(Cl)c(C#N)c1Cl` [Chlorothalonil, tetrachlorisophthalonitrile]: the pest or weed control at 37.5 ppm came to 0% in assay [1] (setting [8]) and 4.6% in assay [2] (setting [8]). Besides, the pest or weed control at 75 ppm in assay [1] (setting [9]) was determined as 87%; in assay [2] (setting [9]), 13.7%. The pest or weed control at 150 ppm in assay [2] (Phakopsora pachyrhizi, rate 150 ppm, read-out: % DC obs) was 18.3%.

As to `CCC(=O)Oc1c(OC)ccnc1C(=O)N[C@@H](C)C(=O)O[C@@H](C)[C@@H](C)c1ccccc1C` [Compound I], in assay [1] (setting [4]), the pest or weed control at 0.39 ppm amounted to 79.2%. Further, the pest or weed control at 1.56 ppm in assay [2] (Phakopsora pachyrhizi, rate 1.56 ppm, read-out: % DC obs) was found to be 77.6%.

With `[Cl-].[Cu+2].[Cu+2].[OH-].[OH-].[OH-]` [Cu Oxychloride], in assay [2] (rate 200 ppm), the “% DC obs” value was 13.7%.

Take `CC(C1CC1)C(O)(Cn1cncn1)c1ccc(Cl)cc1` (stereo not shown) [Cyproconazole, 2-(4-chlorophenyl)-3-cyclopropyl-1-(1,2,4-triazol-1-yl)butan-2-ol]: in assay [1] (setting [3]), the pest or weed control at 0.0015 ppm was 11.1%, the pest or weed control at 0.006 ppm worked out at 3.7% and the pest or weed control at 0.024 ppm was found to be 11.1%.

For `CC1COC(Cn2cncn2)(c2ccc(Oc3ccc(Cl)cc3)cc2Cl)O1` (stereo not shown) [Difenoconazole, 1-[[2-[2-chloro-4-(4-chlorophenoxy)phenyl]-4-methyl-1,3-dioxolan-2-yl]methyl]-1,2,4-triazole], the results for the pest or weed control at 0.19 ppm in assay [1] (setting [10]) and in assay [2] (setting [10]) were 41.9% and 18.3%, respectively.

With `CC(Cc1ccc(C(C)(C)C)cc1)CN1C[C@@H](C)O[C@@H](C)C1` (stereo partly drawn) [Fenpropimorph, (2S,6R)-4-[3-(4-tert-butylphenyl)-2-methylpropyl]-2,6-dimethylmorpholine], the pest or weed control at 100 ppm in assay [2] (Phakopsora pachyrhizi, rate 100 ppm, read-out: % DC obs) was determined as 36.4%. The pest or weed control at 200 ppm in assay [2] (setting [11]) was 61.9%.

Consider `Cn1cc(C(=O)Nc2ccccc2-c2cc(F)c(F)c(F)c2)c(C(F)F)n1` [Fluxapyroxad, 3-(difluoromethyl)-1-methyl-N-[2-(3,4,5-trifluorophenyl)phenyl]pyrazole-4-carboxamide], for which the pest or weed control at 0.195 ppm in assay [1] (setting [5]) was found to be 3.7%; in assay [2] (setting [3]), 0%. Besides, the pest or weed control at 0.78 ppm in assay [1] (setting [6]) is 11.1%. For the same compound, the pest or weed control at 3.125 ppm worked out at 80% in assay [1] (setting [7]) and 17.6% in assay [2] (setting [7]).

Regarding `CC(O)(Cn1cncn1)c1ccc(Oc2ccc(Cl)cc2)cc1C(F)(F)F` (stereo not shown) [Mefentrifluconazole, 2-[4-(4-chlorophenoxy)-2-(trifluoromethyl)phenyl]-1-(1,2,4-triazol-1-yl)propan-2-ol], the pest or weed control at 0.049 ppm in assay [1] (setting [3]) was 9.9%; in assay [2] (setting [3]), 43.7%. Also, the pest or weed control at 0.195 ppm in assay [1] (setting [5]) is 87%; in assay [2] (setting [3]), 69.1%.

On to `CNC(=O)/C(=N/OC)c1ccccc1Oc1ccccc1` [Metominostrobin, (2E)-2-methoxyimino-N-methyl-2-(2-phenoxyphenyl)acetamide], for which the pest or weed control at 0.78 ppm in assay [1] (setting [6]) turned out to be 0%; in assay [2] (setting [6]), 33.3%. For the same compound, the pest or weed control at 3.125 ppm in assay [1] (setting [7]) turned out to be 11.1%; in assay [2] (setting [7]), 67.6%. In addition, the pest or weed control at 12.5 ppm in assay [1] (setting [3]) stood at 64.4%.

For the compound `CO/C=C(/C(=O)OC)c1ccccc1COc1cccc(C(F)(F)F)n1` [Picoxystrobin, methyl (E)-3-methoxy-2-[2-[[6-(trifluoromethyl)pyridin-2-yl]oxymethyl]phenyl]prop-2-enoate], the pest or weed control at 0.195 ppm worked out at 0% in assay [1] (setting [5]) and 14.8% in assay [2] (setting [3]). The pest or weed control at 0.78 ppm was 80% in assay [1] (setting [6]) and 53.3% in assay [2] (setting [6]). Moreover, the “% DC obs” value in assay [1] (rate 0.195 ppm) was 0%; in assay [1] (rate 0.78 ppm), 80%. Besides, the pest or weed control at 0.049 ppm in assay [2] (setting [3]) is 18.5%.

For `CCCC1COC(Cn2cncn2)(c2ccc(Cl)cc2Cl)O1` (stereo not shown) [Propiconazole, 1-[[2-(2,4-dichlorophenyl)-4-propyl-1,3-dioxolan-2-yl]methyl]-1,2,4-triazole], the pest or weed control at 0.195 ppm in assay [1] (setting [5]) was found to be 19.9%. The pest or weed control at 0.78 ppm in assay [1] (setting [6]) was determined as 78%. In assay [2] (setting [3]), the pest or weed control at 0.049 ppm was 9.2% and the pest or weed control at 0.195 ppm was determined as 59.1%.

Take `OC(Cc1ccccc1Cl)(Cn1[nH]cnc1=S)C1(Cl)CC1` (stereo not shown) [Prothioconazole, 2-[2-(1-chlorocyclopropyl)-3-(2-chlorophenyl)-2-hydroxypropyl]-1,2-dihydro-3H-1,2,4-triazole-3-thione]: in assay [1] (setting [3]), the pest or weed control at 0.0015 ppm came out at 0% and the pest or weed control at 0.006 ppm was determined as 7.4%.

Turning to `CON(C(=O)c1cn(C)nc1C(F)F)C(C)Cc1c(Cl)cc(Cl)cc1Cl` (stereo not shown) [Pydiflumetofen, 3-(difluoromethyl)-N-methoxy-1-methyl-N-[1-(2,4,6-trichlorophenyl)propan-2-yl]pyrazole-4-carboxamide], the pest or weed control at 12.5 ppm in assay [1] (setting [3]) turned out to be 0%. The pest or weed control at 50 ppm in assay [1] (Phakopsora pachyrhizi, rate 50 ppm, read-out: % DC obs) was determined as 15.3%. Moreover, the pest or weed control at 200 ppm in assay [1] (setting [11]) stood at 85.4%.

For `CC(C)(C)C(O)(CCc1ccc(Cl)cc1)Cn1cncn1` (stereo not shown) [Tebuconazole, 1-(4-chlorophenyl)-4,4-dimethyl-3-(1,2,4-triazol-1-ylmethyl)pentan-3-ol], the pest or weed control at 0.0015 ppm in assay [1] (setting [3]) is 0%; in assay [2] (Phakopsora pachyrhizi, rate 0.0015 ppm, read-out: % DC obs) it was 0%. The pest or weed control at 0.006 ppm in assay [1] (setting [3]) turned out to be 11.1%; in assay [2] (Phakopsora pachyrhizi, rate 0.006 ppm, read-out: % DC obs), 0%. The pest or weed control at 0.024 ppm in assay [2] (setting [3]) was 11.7%.

`FC(F)C(F)(F)OCC(Cn1cncn1)c1ccc(Cl)cc1Cl` (stereo not shown) [Tetraconazole, 1-[2-(2,4-dichlorophenyl)-3-(1,1,2,2-tetrafluoroethoxy)propyl]-1,2,4-triazole]: the pest or weed control at 0.012 ppm amounted to 0% in assay [1] (setting [12]) and 13.7% in assay [2] (setting [12]). The pest or weed control at 0.049 ppm in assay [1] (setting [3]) was 0%; in assay [2] (setting [3]) it was 13.7%. In addition, in assay [1] (setting [5]), the pest or weed control at 0.195 ppm was 90%.

As for `CO/N=C(/C(=O)OC)c1ccccc1CO/N=C(\C)c1cccc(C(F)(F)F)c1` [Trifloxystrobin, methyl (2E)-2-methoxyimino-2-[2-[[(E)-1-[3-(trifluoromethyl)phenyl]ethylideneamino]oxymethyl]phenyl]acetate], the pest or weed control at 0.195 ppm in assay [2] (setting [3]) was determined as 18.3%.

For the compound “zinc manganese(2+)N-[2-(sulfidocarbothioylamino)ethyl]carbamodithioate [Mancozeb]”, the “% DC obs” value in assay [1] (rate 0.19 ppm) was determined as 3.8%; in assay [1] (rate 0.78 ppm) it was 0%; in assay [1] (rate 3.125 ppm), 0%; in assay [2] (rate 0.19 ppm), 14.8%; in assay [2] (rate 0.78 ppm), 14.8%; in assay [2] (rate 3.125 ppm), 0%. Moreover, in assay [2] (rate not given), the “% DC obs” value is on record as 0%.
